We go through 1 compound from patent publication US9872493B2, “Method for promoting plant growth” (SUMITOMO CHEMICAL COMPANY, LIMITED, priority 2012, dated 2018).

Assay [1] has as its system Rice (Variety: Nipponbare). The assay is described as follows: Test for evaluating promotion of root growth by hydroponics of rice (Test Examples 1-3). It is filed as in vivo. The procedure:
Rice (Variety: Nipponbare)
(§1) A DMSO solution, which contained one of the compounds 14, 18, 21, 23, 26, 28, 29, 30, 35, 36, 37, 39 and 40 of the present invention at a concentration of 100,000 ppm, was added to Hoagland hydroponic solution (Hoagland and Arnon, California Agricultural Experiment Station 1950 Circular 347 pp. 34) of ¼-fold concentration at a volume ratio of 1/10,000. In this manner, hydroponic solutions containing one of the compounds 14, 18, 21, 23, 26, 28, 29, 30, 35, 36, 37, 39 and 40 of the present invention at 10 ppm were prepared respectively. As an untreated control plot, a hydroponic solution obtained by adding DMSO to Hoagland hydroponic solution of ¼-fold concentration at a volume ratio of 1/10,000 was used.
Rice seeds were soaked in a 1% aqueous sodium hypochlorite solution for 10 minutes, then soaked in a 70% ethanol solution for surface sterilization, and then washed with distilled water. The sterilized seeds were soaked in a hydroponic solution containing the test compound described above at 10 ppm and incubated in a dark place for 3 days at 28° C. to perform treatment for hastening germination.
Thereafter, 30 ml of hydroponic solution containing the test compound at 10 ppm was dispensed in a plastic tube (diameter of 20 mm×height of 113 mm) of which the side was covered with cardboard to block light. A float prepared using a styrene board and vinyl mesh was floated, and the rice seeds that had undergone the treatment for hastening germination were placed on the float on the surface of the hydroponic solution. The seeds were cultivated for 3 days at 26° C., an illuminance of 4,000 lux of the top surface of the tube, a humidity of 50%, and a day length of 16 hours.
The nursery plants of rice obtained after cultivating were measured in terms of the length of seminal root by using WinRHIZO system (manufactured by Regent Instruments Inc). For each test plot, an average of the measured values of the seminal root of 4 or 5 individuals were determined.
as §1, with “compounds 7, 8, 9, 10, 12, 17, 20,” for “compounds 14, 18,”, “21, 25, 27,” for “21, 23, 26,”, “30, 34,” for “30,”, “37, 38,” for “37,”, “of 10,000” for “of 100,000”, “at 1” for “at 10”
Rice seeds were soaked in a 1% aqueous sodium hypochlorite solution for 10 minutes, then soaked in a 70% ethanol solution for surface sterilization, and then washed with distilled water. The sterilized seeds were soaked in a hydroponic solution containing the test compound described above at 1 ppm and incubated in a dark place for 3 days at 28° C. to perform treatment for hastening germination.
Thereafter, 30 ml of hydroponic solution containing the test compound at 1 ppm was dispensed in a plastic tube (diameter of 20 mm×height of 113 mm) of which the side was covered with cardboard to block light. A float prepared using a styrene board and vinyl mesh was floated, and the rice seeds that had undergone the treatment for hastening germination were placed on the float on the surface of the hydroponic solution. The seeds were cultivated for 3 days at 26° C., an illuminance of 4,000 lux of the top surface of the tube, a humidity of 50%, and a day length of 16 hours.
The nursery plants of rice obtained after cultivation were measured in terms of the length of seminal root by using WinRHIZO system (manufactured by Regent Instruments Inc). […]

Another assay has as its system Nicotiana benthamiana. The assay is described as follows: Test for evaluating growth promotion under low-temperature stress by hydroponics of Nicotiana benthamiana (Test Examples 4-6). The following applies: compound at 0.1 ppm, 7 days at 1.5±1.0° C. low-temperature stress, then 3 days at 22° C., green leaf area vs untreated control, read-out: value of a relative leaf area (equation (1)). The class given is in vivo.

Take `CCOC(=O)c1csc2cc(C(F)(F)F)ccc12` [Compound 29]: the “length of seminal root compared with the untreated control plot (in words)” value in assay [1] (0.1 ppm), in assay [1] (1 ppm) and in assay [1] (10 ppm) was “obviously longer” each time. Further, the relative green leaf area after low-temperature stress at 0.1 ppm with Nicotiana benthamiana was at least 5%.
